Calls of active or inactive are those of the source. The calls are words filed in the database; no cut-off is given here.
What was measured:
[1] = system: Spodoptera exigua; test: Insecticidal activity against Spodoptera exigua assessed as increase of larval mortality at 5 umol/g in artificial diet after 9 days relative to control; format: functional
[2] = system: Spodoptera exigua; test: Insecticidal activity against Spodoptera exigua assessed as reduction of weight at 5 umol/g in artificial diet after 9 days relative to control; format: functional, organism-based
[3] = system: Spodoptera exigua; test: Insecticidal activity against Spodoptera exigua; format: functional

SMILES	Activity [1] [%]	Activity [2]	LC50 [3] [µg/g]
CCCCCCCCCCCCCCCCCCc1ccco1	68	–	–
CCCCCCCCCCCCCCc1ccco1	<50	Active	–
CCCCCCCCCCCCCCCCCc1ccco1 [2-(HEPTADECYL)FURAN]	95	–	1206
CCCCCCCCCCCCCCCc1ccco1	93	–	1031

Source: ChEMBL document CHEMBL1158006, “Alkylfurans: effects of alkyl side-chain length on insecticidal activity” (1999)
